Measurements as given in patent EP2626066A1, “Combination therapy comprising selective VEGFR-2 inhibitors and MEK inhibitors” (Max-Planck-Gesellschaft zur Förderung der Wissenschaften …, priority 2012, dated 2013).

Legend:
H1650 = conditions: H1650, very low VEGFR2; daily oral gavage ZD6474 50 mg/kg, PD0325901 12mg/kg; start at about 50mm^3; Fig. 10
Procedure: (§1) All animal procedures were approved by the local animal protection committee and the local authorities. H1975, H441 and H1650 cells (5x10^6 cells) were injected subcutaneously into male nude mice. […] Mice were treated daily by oral gavage of ZD6474 (50 mg/kg, solved in vehicle), PD0325901 (12mg/kg, dissolved in propylene glycol:water (1:1)), the combination of ZD6474 (50 mg/kg) and PD0325901 (12mg/kg) or vehicle detergent alone. Tumor size of tumors expressing high levels of VEGFR2 (H441, H1975) and tumor with low expression of VEGFR2 (H1650) were monitored measuring perpendicular diameters.
(§2) All animal procedures were approved by the local animal protection committee and the local authorities. High VEGFR2 expressing tumor cell H1975 and H441 (5x10^6 cells), and very low VEGFR2 expressing cells H1650 (5x10^6 cells) were injected subcutaneously into male nude mice. […] Mice were treated daily by oral gavage of ZD6474 (50 mg/kg, solved in vehicle), PD0325901 (12mg/kg, dissolved in propylene glycol:water (1:1)), the combination of ZD6474 (50 mg/kg) and PD0325901 (12mg/kg) or vehicle detergent alone. Tumor size of tumors expressing high levels of VEGFR2 (H441, H1975) and tumor with low expression of VEGFR2 (H1650) were monitored during treatment measuring perpendicular diameters.

H1975 = test system: H1975
Procedure: as §1, §2

H441 = conditions: H441, high VEGFR2; daily oral gavage ZD6474 50 mg/kg, PD0325901 12mg/kg; start at about 50mm^3; Fig. 10
Procedure: as §1, §2

H1975 cells = test: VEGF secretion ELISA assay, H1975 cells; type: cell-based, human; conditions: H1975 expressing ZD6474 resistance mutation of VEGFR2; in vitro
Procedure: Cells were either treated with the indicated compounds or DMSO alone. After 4 hours cells were stimulated with 40 ng/ml of VEGF165, or incubated in medium containing DMSO only. Cells were then washed twice with PBS and supplemented with serum-free medium and allowed to secrete VEGF for 48 hours. Secretion of VEGF into cell culture supernatants was measured by Human VEGF Quantikine Kit (R&D Systems) according to manufacturer's instructions.

SMILES	tumor volume (H1650)	tumor volume (H1975; H1975, high VEGFR2, daily oral gavage ZD6474 50 mg/kg, PD0325901 12mg/kg, start at about 50mm^3, Fig. 10)	tumor volume (H441)	tumor-growth inhibiting effects of the compound (H1975; H1975 expressing ZD6474 resistance mutation of VEGFR2, in vivo, Fig. 1e)	ZD6474-mediated inhibition of VEGF secretion (H1975 cells)
O=C(NOC[C@H](O)CO)c1ccc(F)c(F)c1Nc1ccc(I)cc1F [PD0325901, N-[(2R)-2,3-dihydroxypropoxy]-3,4-difluoro-2-[(2-fluoro-4-iodophenyl)amino]-benzamide]	increased alike	did not reduce the tumor volume	did not reduce the tumor volume		
COc1cc2c(Nc3ccc(Br)cc3F)ncnc2cc1OCC1CCN(C)CC1 [Vandetanib, N-(4-bromo-2-fluorophenyl)-6-methoxy-7-[(1-methylpiperidin-4-yl)methoxy]quinazolin-4-amine]				suppressed	abolished
